According to ChEMBL document CHEMBL3885881, “DrugMatrix”:

Species on record: Rattus norvegicus
Assay: DrugMatrix - Regimen: Daily Repeat
Format: toxicity, organism-based, Sprague-Dawley
Set-up: regimen Daily Repeat, gender Male, age 6-8 weeks
Settings: in vivo, po, route oral GAVAGE, vehicle .5 % CMC; for ABSOLUTE BASOPHIL / ABSOLUTE EOSINOPHIL / ABSOLUTE LYMPHOCYTE / ABSOLUTE MONOCYTE / ABSOLUTE SEGMENTED NEUTROPHIL / BASOPHIL / EOSINOPHIL / ERYTHROCYTE COUNT / HEMATOCRIT / HEMOGLOBIN / LEUKOCYTE COUNT / LYMPHOCYTE / MEAN CORPUSCULAR HEMOGLOBIN / MEAN CORPUSCULAR HEMOGLOBIN CONCENTRATION / MEAN CORPUSCULAR VOLUME / MONOCYTE / NEUTROPHIL / NUCLEATED RED BLOOD CELLS / PLATELET COUNT: tissue Blood; for ALANINE AMINOTRANSFERASE / ALBUMIN / ALKALINE PHOSPHATASE / ASPARTATE AMINOTRANSFERASE / BLOOD UREA NITROGEN / CARBON DIOXIDE / CHLORIDE / CHOLESTEROL / CREATINE PHOSPHOKINASE / CREATININE / GLUCOSE / LACTATE DEHYDROGENASE / LIPASE / PHOSPHORUS / POTASSIUM / SODIUM / TOTAL BILIRUBIN / TOTAL PROTEIN / URIC ACID: tissue Plasma
[1] = 4.5 mg/kg, 120 h, dose level Low, time 5 day
[2] = 10 mg/kg, 72 h, dose level High, time 3 day
[3] = 10 mg/kg, 120 h, dose level High, time 5 day

CC(C(=O)O)c1ccc(-c2ccccc2)c(F)c1 (centres undefined) [FLURBIPROFEN]
ABSOLUTE BASOPHIL [1]: 0 CELLS/uL
ABSOLUTE EOSINOPHIL [1]: 147.67 CELLS/uL
ABSOLUTE LYMPHOCYTE [1]: 17510 CELLS/uL
ABSOLUTE MONOCYTE [1]: 77.67 CELLS/uL
ABSOLUTE SEGMENTED NEUTROPHIL [1]: 4798 CELLS/uL
BASOPHIL [1]: 0%
EOSINOPHIL [1]: 0.67%
ERYTHROCYTE COUNT [1]: 5.45 x10E6/uL
HEMATOCRIT [1]: 34.47%
HEMOGLOBIN [1]: 12.83 G/DL
LEUKOCYTE COUNT [1]: 22.53 x10E3/uL
LYMPHOCYTE [1]: 77.67%
MEAN CORPUSCULAR HEMOGLOBIN [1]: 23.53 pg
MEAN CORPUSCULAR HEMOGLOBIN CONCENTRATION [1]: 37.23 G/DL
MEAN CORPUSCULAR VOLUME [1]: 63.2 fL
MONOCYTE [1]: 0.33%
NEUTROPHIL [1]: 21.33%
NUCLEATED RED BLOOD CELLS [1]: 0 /100WBC
PLATELET COUNT [1]: 1825.67 x10E3/uL
ALANINE AMINOTRANSFERASE [1]: 45.67 u/L
ALBUMIN [1]: 3.93 G/DL
ALKALINE PHOSPHATASE [1]: 223.33 u/L
ASPARTATE AMINOTRANSFERASE [1]: 67.33 u/L
BLOOD UREA NITROGEN [1]: 14.67 mg/dL
CARBON DIOXIDE [1]: 27.67 mmol/L
CHLORIDE [1]: 100 MEQ/L
CHOLESTEROL [1]: 64.33 mg/dL
CREATINE PHOSPHOKINASE [1]: 204.67 u/L
CREATININE [1]: 0.18 mg/dL
GLUCOSE [1]: 162.67 mg/dL
LACTATE DEHYDROGENASE [1]: 109.33 u/L
LIPASE [1]: 8.67 u/L
PHOSPHORUS [1]: 11.9 mg/dL
POTASSIUM [1]: 6.47 MEQ/L
SODIUM [1]: 143.53 MEQ/L
TOTAL BILIRUBIN [1]: 0.17 mg/dL
TOTAL PROTEIN [1]: 5.73 G/DL
URIC ACID [1]: 2.47 mg/dL
ABSOLUTE BASOPHIL [2]: 0 CELLS/uL
ABSOLUTE EOSINOPHIL [2]: 156 CELLS/uL
ABSOLUTE LYMPHOCYTE [2]: 13184.67 CELLS/uL
ABSOLUTE MONOCYTE [2]: 124.67 CELLS/uL
ABSOLUTE SEGMENTED NEUTROPHIL [2]: 3134.67 CELLS/uL
BASOPHIL [2]: 0%
EOSINOPHIL [2]: 1%
ERYTHROCYTE COUNT [2]: 4.13 x10E6/uL
HEMATOCRIT [2]: 25.13%
HEMOGLOBIN [2]: 10 G/DL
LEUKOCYTE COUNT [2]: 16.6 x10E3/uL
LYMPHOCYTE [2]: 79.67%
MEAN CORPUSCULAR HEMOGLOBIN [2]: 24.27 pg
MEAN CORPUSCULAR HEMOGLOBIN CONCENTRATION [2]: 39.83 G/DL
MEAN CORPUSCULAR VOLUME [2]: 61.07 fL
MONOCYTE [2]: 0.67%
NEUTROPHIL [2]: 18.67%
NUCLEATED RED BLOOD CELLS [2]: 0 /100WBC
PLATELET COUNT [2]: 1131.67 x10E3/uL
ALANINE AMINOTRANSFERASE [2]: 16 u/L
ALBUMIN [2]: 2.13 G/DL
ALKALINE PHOSPHATASE [2]: 132.67 u/L
ASPARTATE AMINOTRANSFERASE [2]: 50 u/L
BLOOD UREA NITROGEN [2]: 12 mg/dL
CARBON DIOXIDE [2]: 23 mmol/L
CHLORIDE [2]: 104.33 MEQ/L
CHOLESTEROL [2]: 60 mg/dL
CREATINE PHOSPHOKINASE [2]: 459.67 u/L
CREATININE [2]: 0.11 mg/dL
GLUCOSE [2]: 149.33 mg/dL
LACTATE DEHYDROGENASE [2]: 200.33 u/L
LIPASE [2]: 7.33 u/L
PHOSPHORUS [2]: 10.17 mg/dL
POTASSIUM [2]: 6.66 MEQ/L
SODIUM [2]: 141.47 MEQ/L
TOTAL BILIRUBIN [2]: 0 mg/dL
TOTAL PROTEIN [2]: 3.97 G/DL
URIC ACID [2]: 1.6 mg/dL
ABSOLUTE BASOPHIL [3]: 0 CELLS/uL
ABSOLUTE EOSINOPHIL [3]: 295.67 CELLS/uL
ABSOLUTE LYMPHOCYTE [3]: 12633.33 CELLS/uL
ABSOLUTE MONOCYTE [3]: 394 CELLS/uL
ABSOLUTE SEGMENTED NEUTROPHIL [3]: 4310.33 CELLS/uL
BASOPHIL [3]: 0%
EOSINOPHIL [3]: 2%
ERYTHROCYTE COUNT [3]: 4.56 x10E6/uL
HEMATOCRIT [3]: 28.67%
HEMOGLOBIN [3]: 11 G/DL
LEUKOCYTE COUNT [3]: 17.63 x10E3/uL
LYMPHOCYTE [3]: 68.33%
MEAN CORPUSCULAR HEMOGLOBIN [3]: 24.17 pg
MEAN CORPUSCULAR HEMOGLOBIN CONCENTRATION [3]: 38.37 G/DL
MEAN CORPUSCULAR VOLUME [3]: 62.97 fL
MONOCYTE [3]: 1.67%
NEUTROPHIL [3]: 28%
NUCLEATED RED BLOOD CELLS [3]: 0.33 /100WBC
PLATELET COUNT [3]: 1559.67 x10E3/uL
ALANINE AMINOTRANSFERASE [3]: 29 u/L
ALBUMIN [3]: 2.7 G/DL
ALKALINE PHOSPHATASE [3]: 259.67 u/L
ASPARTATE AMINOTRANSFERASE [3]: 105.67 u/L
BLOOD UREA NITROGEN [3]: 16 mg/dL
CARBON DIOXIDE [3]: 25 mmol/L
CHLORIDE [3]: 100.67 MEQ/L
CHOLESTEROL [3]: 63.33 mg/dL
CREATINE PHOSPHOKINASE [3]: 164.67 u/L
CREATININE [3]: 0.13 mg/dL
GLUCOSE [3]: 140.33 mg/dL
LACTATE DEHYDROGENASE [3]: 138 u/L
LIPASE [3]: 8.33 u/L
PHOSPHORUS [3]: 11.9 mg/dL
POTASSIUM [3]: 6.44 MEQ/L
SODIUM [3]: 142.2 MEQ/L
TOTAL BILIRUBIN [3]: 0.1 mg/dL
TOTAL PROTEIN [3]: 5.03 G/DL
URIC ACID [3]: 1.63 mg/dL
